“Also recorded” adds a separate entry of the source.

From patent US10800806B2, “Sterol derivatives and use thereof for treating diseases involving transformed astrocyte cells or for treating malignant haemopathies” (BETA INNOV, priority 2012, dated 2020) come the findings set out here.

Assay [1] deals with liver cancer cells (ATCC-HB-8065). The experiment in a line: Activity in vitro on liver cancer cells. It counts as cell-based, human. The following applies: 30 μM, ethanolic form. As to the method: They were obtained from ATCC (ref. ATCC-HB-8065). The culture medium consists of MEM (Gibco, USA; ref. 51200) and 10% (v/v) FCS. The doubling time is 60 h. • Prostate cancer cells
(§1) The cancer cells used are from liver (ref. ATCC-HB-8065), prostate (ref. ATCC-HTB-81), breast (ref. ATCC-HTB-19) cancer cells, and from colon cancer cells (ECACC-HT29/219) of human origin, mentioned above.

Assay [2] has as its system CD133+ stem cells (U87-MG cultures). The experiment in a line: Immunolabelling of the CD133+ stem cells with the A/B peroxidase system. It counts as cell-based, human. The settings on record: for CD133+ cells, percentage relative to the controls: 30 μM in ethanolic form. As to the method:
The anti-CD133 (poly, Abnova), anti-GFAP (poly, Sigma), anti-NFL (mono, Santa Cruz) and anti-fibroblast (ERTR7, Santa Cruz) primary antibodies are diluted to 1/100 in the case of the first three antibodies and to 1/50 in the case of the last.
The secondary antibodies corresponding to recognition of the primary antibodies are anti-rabbit antibodies coupled to peroxidase (goat, Sigma), anti-mouse coupled to Dylight 488 (sheep, Sigma), anti-mouse coupled to Dylight 488 (sheep, Sigma) and anti-rat coupled to FITC (rabbit, Sigma). The dilutions are 1/4000, 1/1000, 1/4000 and 1/400 respectively.
The cells are permeabilized for 5 min with 0.1% Triton X-100 (Sigma) in PBS (Fisher Scientific). The nonspecific sites are blocked with 2% BSA (Sigma) in PBS. Incubations are carried out for 1 h at ambient temperature, 48 h at 4° C., 24 h at 4° C. and 1 h at ambient temperature for the anti-CD133, anti-GFAP, anti-NFL and anti-Fibroblast antibodies respectively. Incubation with the secondary antibodies is carried out for 1 h at ambient temperature. The CD133 positive cells are detected by the DAB/H2O2 system (Sigma), and observed with an optical microscope.
The immunolabelling is carried out as described above (section II, A).

Assay [3] concerns partially purified LDH from human GBM lines (U87-MG). The experiment in a line: Inhibition of LDH activity, in gel assay after IEF. It counts as biochemical. The following applies: ethanolic form, 36 mM. The method, then: (§2) Next, the LDH activities and their inhibition were detected by the “in gel assay” technique (25). The source of activity used was LDH LL and LDH, partially purified, from human GBM lines U87-MG (LDH GBM). “In gel assay” detection was carried out after isoelectric focusing (IEF) on electrophoresis gels of the LDH LL and LDH GBM samples.
The cells collected in phosphate buffer (50 mM, Ph 7.2.Pi) undergo several freeze (−20° C.)/thaw cycles and the cellular material is homogenized. After centrifugation at 10,000 g for 45 min at 4° C., the supernatant is collected and aliquots containing 10% glycerol (v:v) are frozen at −80° C. At the desired time, the aliquots, after thawing, are chromatographed on a filtration column (Biogel P-60, BioRad) prepared in Pi. The volume of gel is 9 ml and the inside diameter of the column is 0.4 cm. Elution is carried out at atmospheric pressure. […]
(§3) The LDH activity is detected by the lactate/NAD/MTT/phenazine methosulphate system (formation of a precipitate of the formazan type in the IEF gel); this system is described in reference (25). […]
(§4) The activity of LDH is detected by the “in gel assay” technique on IEF electrophoresis gels, which were described in the section “A/ PROTOCOLS 6)” (25); the precision of this technique is 0.2 unit of pH. The activity of LDH is detected by a dark blue precipitate, of the formazan type, the site where LDH activity is located.

Assay [4] has as its system LDH from Lactobacillus leichmannii (LL). The experiment in a line: Inhibition of LDH activity, in gel assay after IEF. It counts as biochemical. The following applies: ethanolic form, 36 mM. As to the method: The measurements of the activity of LDH and of its inhibition by a routine inhibitor, oxamate (23), were validated by the spectrometric method (24) using the purified LDH of Lactobacillus leichmannii (LL) (Sigma) as standard.
as §2
The mini-gels of 7.5 (T %) and of 2.6 (C %) are poured into Pi with the Ampholines (BioRad) making it possible to form a pH gradient in the range from 7 to 5 after pre-focusing in a cold chamber. The containers used are of the mini-protean 3 type (BioRad). […]
as §3, §4

In assay [5] the test system is breast cancer cells (ATCC-HTB-19). Kind of assay: Activity in vitro on breast cancer cells. It counts as cell-based, human. The following applies: 30 μM, ethanolic form. As to the method: They were obtained from ATCC (ref. ATCC-HTB-19). The culture medium is the same as that used for the liver cancer lines. The doubling time is 20 h. • Colon carcinoma (line HT29/219)
as §1

As to `CC(=O)OC1C=C2CC(OC(=O)C3COC(C)(C)O3)CCC2(C)C2CCC3(C)C(C(C)CCCC(C)C)CCC3C12` (centres unmarked) [Molecule 2.b, 7-acetoxy-10,13-dimethyl-17-(6-methylheptan-2-yl)-2,3,4,7,8,9,10,11,12,13,14,15,16,17-tetradecahydro-1H-cyclopenta[a]phenanthren-3-yl 2,2-dimethyl-1,3-dioxolane-4-carboxylate], the “effect on cellular division and respiration” value in assay [1] and in assay [5] was “no effect” each time. Further, the “CD133+ cells, percentage relative to the controls” value in assay [2] (4 days of treatment) came out at 100%; in assay [2] (22 days of treatment) it was 0%. Also, the “destruction of the CD133+ stem cells” value in assay [2] (ethanolic form, 22 days of treatment) is “completely destroyed; also recorded: completely destroys the stem cells”. Besides, the “appearance of CD133+ stem cells after replacing the culture medium with fresh drug-free medium” value in assay [2] (medium replaced at 22 days) is listed as “does not lead to the appearance of CD133+ stem cells”. In assay [3], the “inhibition of the enzymatic activity of LDH GBM” value is “partially”. Besides, the “inhibition of the enzymatic activity of LDH LL” value in assay [4] was “almost completely”.
